43 molecules from patent US9249147B2, “Tyrosine kinase inhibitors” (CHEMBRIDGE CORPORATION, priority 2008, dated 2016) can be followed below.

One test concerns the target ALK (Homo sapiens, UniProt Q9UM73). Kind of test: ALK kinase assay (Kinase-Glo / AlphaScreen, purified NPM-ALK). The format is biochemical. The arrangement: fused to the complete intracytoplasmic portion of ALK containing the functional tyrosine kinase domain; 6xHis; made in house; host or cells: insect cells; the other entry of the earlier key: NPM1 (P06748, Nucleophosmin). As to conditions: Table 1; read-out: ALK IC50.

The target in a further test is T1, IGF1R (Homo sapiens, UniProt P08069).
T1 construct: 6×His- or GST-tagged kinase domain fragments of the corresponding RTKs expressed in baculovirus system; host or cells: baculovirus system
In words: IGF1R kinase assay. It is filed as biochemical. The conditions noted are these: Table 1; read-out: IGF1R IC50. The procedure:
To determine inhibition of several tyrosine kinases, such as IGF1R, InsR, Alk, TrkA and Jak2, kinase assays are conducted using either Kinase-Glo (Promega) or AlphaScreen (PerkinElmer) kinase assay platforms. The Kinase-Glo Luminescent Kinase Assay is a homogeneous method for measuring kinase activity by determining the amount of ATP remaining after a kinase reaction. The luminescent signal is proportional to the amount of ATP and inversely proportional to the amount of kinase activity. Tyrosine kinase PT66 AlphaScreen Assay is a high-sensitivity homogeneous, anti-phosphotyrosine antibody-mediated luminescent proximity method measuring incorporation of phosphate in synthetic poly(Glu-Tyr) substrate. The kinase preparations used consist of purified recombinant, 6×His- or GST-tagged kinase domain fragments of the corresponding RTKs expressed in baculovirus system.
Compounds with a range of concentrations 40 μM, 20 μM, 10 μM, 5 μM, 2.5 μM, 1.25 μM, 0.625 μM, 0.3125 μM, 0.15625 μM and 0.078125 μM were incubated with NPM-ALK, which was produced in insect cells as a 6×HIS-tagged fusion protein and purified using nickel-charged resin chromatography, for 30 minutes at RT in the presence of 10 μM ATP and 7.0 ng biotinylated poly-GT. A 1:1 mixture of […] and donor beads was then added to the reaction and incubated for an additional 60 minutes at RT. The assay was conducted on a MultiPROBE liquid handling workstation (PerkinElmer) in a 384-well plate format with a total reaction volume of 40 μL per well. Working stocks of all compounds were dissolved in 100% DMSO and serial dilutions of the compounds were performed using kinase buffer (50 mM Tris-HCl (pH 7.5), 5 mM MgCl2, 5 mM MnCl2, 2 mM DTT (added freshly before use), 0.01% Tween-20) containing 5% DMSO. […] Data were collected as optical readings at 520-680 nm on a Fusion™ microplate analyzer (PerkinElmer), and IC50 and Ki values calculated using PRISM3.0 software (GraphPad Software, Inc., San Diego, Calif.). The same assay was also used with minor modifications to assess the IC50 and Ki values for selected compounds against five other tyrosine kinases (IRK, IGF1R, Flt3, Abl, Src), all of which were purchased from commercial vendors. PolyGT-Biotin was bought from CIS Biointernational Cat. #61GT0BLD; ATP—from Sigma Cat. # A7699; sodium orthovanadate—from Sigma Cat. #S-6508; phosphotyrosine (PT66) assay kit from PerkinElmer Cat. #6760602M; automated workstation tips (20 μL): PerkinElmer Cat. #6000657; and OptiPlate-384 (white)—from PerkinElmer Cat. #6007299.

In general, IC50 refers to the point on the concentration scale where inhibition reaches its midpoint.

T1 sequence (P08069 999-1274 limits assumed): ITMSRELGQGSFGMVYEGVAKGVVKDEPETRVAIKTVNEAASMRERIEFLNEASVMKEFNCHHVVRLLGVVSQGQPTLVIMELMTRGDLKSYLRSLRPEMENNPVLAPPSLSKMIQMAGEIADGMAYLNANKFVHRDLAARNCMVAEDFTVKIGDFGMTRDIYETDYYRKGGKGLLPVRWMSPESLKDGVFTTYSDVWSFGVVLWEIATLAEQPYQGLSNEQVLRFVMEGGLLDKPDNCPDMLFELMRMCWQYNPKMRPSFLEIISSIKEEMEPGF
ALK, sequence (Q9UM73 with tags, fused parts or gaps): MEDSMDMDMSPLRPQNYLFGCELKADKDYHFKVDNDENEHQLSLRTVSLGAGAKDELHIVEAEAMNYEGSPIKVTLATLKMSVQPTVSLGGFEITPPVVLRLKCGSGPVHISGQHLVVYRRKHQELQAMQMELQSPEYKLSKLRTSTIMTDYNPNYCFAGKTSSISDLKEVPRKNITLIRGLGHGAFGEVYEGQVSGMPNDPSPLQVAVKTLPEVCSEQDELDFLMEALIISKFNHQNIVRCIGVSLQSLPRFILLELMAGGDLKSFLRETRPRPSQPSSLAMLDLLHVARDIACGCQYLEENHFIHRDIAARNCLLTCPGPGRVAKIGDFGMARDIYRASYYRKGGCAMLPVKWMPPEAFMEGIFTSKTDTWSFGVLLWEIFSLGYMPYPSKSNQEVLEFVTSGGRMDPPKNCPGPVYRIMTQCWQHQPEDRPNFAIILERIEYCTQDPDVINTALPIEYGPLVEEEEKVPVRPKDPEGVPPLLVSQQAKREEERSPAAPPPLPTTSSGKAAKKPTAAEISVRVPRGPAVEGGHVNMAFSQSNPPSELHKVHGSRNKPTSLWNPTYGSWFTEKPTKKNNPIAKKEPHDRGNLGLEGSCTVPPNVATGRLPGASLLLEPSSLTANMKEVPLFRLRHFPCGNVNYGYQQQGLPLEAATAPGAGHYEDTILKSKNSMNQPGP

For the molecule `CN1CCC(N2C(=O)c3cc4nc(-c5c(N[C@H](CO)Cc6ccccc6)cc[nH]c5=O)[nH]c4cc3C2=O)CC1`, at ALK, the IC50 is > 1000 nM. On the same count and under the same terms, for `COC[C@H](Cc1ccccc1)Nc1cc[nH]c(=O)c1-c1nc2cc3c(cc2[nH]1)C(=O)N(C1CCN(C)CC1)C3=O` the value was > 1000 nM; for `COC[C@@H](Cc1ccccc1)Nc1cc[nH]c(=O)c1-c1nc2cc3c(cc2[nH]1)C(=O)N(C1CCN(C)CC1)C3=O`, > 1000 nM. For `CC(Cc1cccs1)Nc1cc[nH]c(=O)c1-c1nc2cc3c(cc2[nH]1)CN(CCCN1CCCC1)C3=O` (centres unmarked), the IC50 on IGF1R is 250 to 1000 nM; on ALK, 100 to 250 nM. As to `CC(Cc1ccsc1)Nc1cc[nH]c(=O)c1-c1nc2cc3c(cc2[nH]1)C(=O)N(CCCN1CCCC1)C3=O` (centres unmarked), the IC50 at ALK was 100 to 250 nM. Turning to `CC(Cc1ccsc1)Nc1cc[nH]c(=O)c1-c1nc2cc3c(cc2[nH]1)C(=O)N(CCCN1CCCC1)C3` (centres unmarked), the IC50 on IGF1R and at ALK was 250 to 1000 nM throughout. As to `CCC(Cc1cccs1)Nc1cc[nH]c(=O)c1-c1nc2cc3c(cc2[nH]1)C(=O)N(CCCN1CCCC1)C3=O` (centres unmarked), the IC50 on ALK was in the range of 250 to 1000 nM. In the case of `CCC(Cc1cccs1)Nc1cc[nH]c(=O)c1-c1nc2cc3c(cc2[nH]1)C(=O)N(CCCN1CCCC1)C3` (centres unmarked), at ALK, the IC50 is > 1000 nM.

Turning to `Cc1noc(C)c1CC(C)Nc1cc[nH]c(=O)c1-c1nc2cc3c(cc2[nH]1)C(=O)N(CCCN1CCCC1)C3=O` (centres unmarked), the IC50 on IGF1R and at ALK was > 1000 nM each time. For `Cc1noc(C)c1CC(C)Nc1cc[nH]c(=O)c1-c1nc2cc3c(cc2[nH]1)C(=O)N(CCCN1CCCC1)C3` (centres unmarked), the IC50 on IGF1R and at ALK was > 1000 nM throughout. For `C[C@@H](Cc1cccs1)Nc1cc[nH]c(=O)c1-c1nc2cc3c(cc2[nH]1)C(=O)N(C1CCN(C)CC1)C3`, the figures for the IC50 on IGF1R and on ALK were 10 to 100 nM and 100 to 250 nM, respectively. For the molecule `C[C@H](Cc1cccs1)Nc1cc[nH]c(=O)c1-c1nc2c(Cl)c3c(cc2[nH]1)C(=O)N(C1CCN(C)CC1)C3`, the IC50 on IGF1R is 250 to 1000 nM; on ALK it was > 1000 nM.

Regarding `C[C@H](Cc1cccs1)Nc1cc[nH]c(=O)c1-c1nc2cc3c(c(Cl)c2[nH]1)C(=O)N(C1CCN(C)CC1)C3`, the results for the IC50 on IGF1R and on ALK were 100 to 250 nM and 250 to 1000 nM, respectively. For the molecule `Cc1ccc(CC(C)Nc2cc[nH]c(=O)c2-c2nc3cc4c(cc3[nH]2)C(=O)N(CCCN2CCCC2)C4)s1` (centres unmarked), the IC50 is 100 to 250 nM at IGF1R and > 1000 nM at ALK. For the molecule `Cc1ccsc1CC(C)Nc1cc[nH]c(=O)c1-c1nc2cc3c(cc2[nH]1)C(=O)N(CCCN1CCCC1)C3` (centres unmarked), the IC50 at IGF1R and on ALK was 100 to 250 nM each time. For the molecule `Cc1csc(CC(C)Nc2cc[nH]c(=O)c2-c2nc3cc4c(cc3[nH]2)C(=O)N(CCCN2CCCC2)C4)c1` (centres unmarked), the IC50 on IGF1R and on ALK was 250 to 1000 nM in each case.

As to `Cc1cc(CC(C)Nc2cc[nH]c(=O)c2-c2nc3cc4c(cc3[nH]2)C(=O)N(CCCN2CCCC2)C4)sc1C` (centres unmarked), the IC50 on IGF1R was 250 to 1000 nM; at ALK it was > 1000 nM. As for `Cc1cc(C)c(CC(C)Nc2cc[nH]c(=O)c2-c2nc3cc4c(cc3[nH]2)C(=O)N(CCCN2CCCC2)C4)s1` (centres unmarked), the values for the IC50 on IGF1R and at ALK were 100 to 250 nM and > 1000 nM, respectively. Regarding `CC(Cc1cc2ccccc2s1)Nc1cc[nH]c(=O)c1-c1nc2cc3c(cc2[nH]1)C(=O)N(CCCN1CCCC1)C3` (centres unmarked), the IC50 at IGF1R and at ALK was > 1000 nM throughout. In the case of `C[C@@H](Cc1sccc1Cl)Nc1cc[nH]c(=O)c1-c1nc2cc3c(cc2[nH]1)C(=O)N(CCN1CCCC1)C3=O`, the IC50 at IGF1R fell in the range of 250 to 1000 nM; at ALK it was 100 to 250 nM.

With `Cc1ccsc1C[C@H](C)Nc1cc[nH]c(=O)c1-c1nc2cc3c(cc2[nH]1)CN(CCN1CCS(=O)(=O)CC1)C3=O`, the figures for the IC50 on IGF1R and on ALK were 250 to 1000 nM and 100 to 250 nM, respectively. For `Cc1ccsc1C[C@H](C)Nc1cc[nH]c(=O)c1-c1nc2cc3c(cc2[nH]1)C(=O)N(CCN(C)CCS(C)(=O)=O)C3=O`, the figures for the IC50 on IGF1R and on ALK were > 1000 nM and 100 to 250 nM, respectively.

`Cc1ccsc1C[C@H](C)Nc1cc[nH]c(=O)c1-c1nc2cc3c(cc2[nH]1)C(=O)N(CCN(C)CCS(C)(=O)=O)C3`: the IC50 at IGF1R fell in the range of 250 to 1000 nM; at ALK, 10 to 100 nM. Taken in the same sequence, the figures for `Cc1ccccc1C[C@H](C)Nc1cc[nH]c(=O)c1-c1nc2cc3c(cc2[nH]1)C(=O)N(CCN1CCCC1)C3=O` were > 1000 nM and 10 to 100 nM.

Take `Cc1ccccc1C[C@H](C)Nc1cc[nH]c(=O)c1-c1nc2cc3c(cc2[nH]1)CN(CCN1CCCC1)C3=O`: the values for the IC50 at IGF1R and at ALK were 250 to 1000 nM and 10 to 100 nM, respectively. As for `C[C@@H](Cc1ccco1)Nc1cc[nH]c(=O)c1-c1nc2cc3c(cc2[nH]1)C(=O)N(CCN1CCCC1)C3=O`, the IC50 at IGF1R was > 1000 nM; on ALK, 100 to 250 nM.

For the molecule `C[C@@H](Cc1ccco1)Nc1cc[nH]c(=O)c1-c1nc2cc3c(cc2[nH]1)CN(CCN1CCCC1)C3=O`, the results for the IC50 on IGF1R and on ALK were 250 to 1000 nM and 100 to 250 nM, respectively. On to `CCN1CCC[C@@H]1CN1Cc2cc3nc(-c4c(N[C@@H](C)Cc5sccc5C)cc[nH]c4=O)[nH]c3cc2C1=O`, for which the IC50 on IGF1R was 250 to 1000 nM; on ALK, 100 to 250 nM.

Regarding `CCN1CCC[C@H]1CN1Cc2cc3nc(-c4c(N[C@@H](C)Cc5sccc5C)cc[nH]c4=O)[nH]c3cc2C1=O`, the IC50 at IGF1R fell in the range of 100 to 250 nM; on ALK, 10 to 100 nM. As to `C[C@@H](Cc1sccc1Cl)Nc1cc[nH]c(=O)c1-c1nc2cc3c(cc2[nH]1)C(=O)N([C@@H](C)CN(C)C)C3=O`, the IC50 is > 1000 nM on IGF1R and 10 to 100 nM on ALK.

On to `C[C@H](CN(C)C)N1C(=O)c2cc3nc(-c4c(N[C@@H](C)Cc5sccc5Cl)cc[nH]c4=O)[nH]c3cc2C1=O`, for which the IC50 was > 1000 nM on IGF1R and 10 to 100 nM on ALK. In the case of `C[C@@H](Cc1sccc1Cl)Nc1cc[nH]c(=O)c1-c1nc2cc3c(cc2[nH]1)C(=O)N(C[C@H](C)N(C)C)C3=O`, the results for the IC50 at IGF1R and at ALK were > 1000 nM and 10 to 100 nM, respectively. For `C[C@@H](Cc1sccc1Cl)Nc1cc[nH]c(=O)c1-c1nc2cc3c(cc2[nH]1)C(=O)N([C@@H](C)CN(C)C)C3`, the IC50 on IGF1R was 100 to 250 nM; at ALK it was 10 to 100 nM. As for `C[C@H](CN1C(=O)c2cc3nc(-c4c(N[C@@H](C)Cc5sccc5Cl)cc[nH]c4=O)[nH]c3cc2C1=O)N(C)C`, the IC50 at IGF1R was > 1000 nM; at ALK, 10 to 100 nM. Turning to `C[C@H](CN(C)C)N1Cc2cc3nc(-c4c(N[C@@H](C)Cc5sccc5Cl)cc[nH]c4=O)[nH]c3cc2C1=O`, the 50% inhibitory concentration (IC50) on IGF1R was 100 to 250 nM; at ALK, 10 to 100 nM. On to `C[C@@H](Cc1sccc1Cl)Nc1cc[nH]c(=O)c1-c1nc2cc3c(cc2[nH]1)C(=O)N(C[C@H](C)N(C)C)C3`, for which the IC50 is 250 to 1000 nM at IGF1R and < 10 nM on ALK. On to `C[C@H](CN1Cc2cc3nc(-c4c(N[C@@H](C)Cc5sccc5Cl)cc[nH]c4=O)[nH]c3cc2C1=O)N(C)C`, for which the IC50 on IGF1R is 250 to 1000 nM; on ALK, < 10 nM. `C[C@@H](Cc1ccccc1F)Nc1cc[nH]c(=O)c1-c1nc2cc3c(cc2[nH]1)CN(CCN1CCCC1)C3=O`: the IC50 at IGF1R lay in the range of 250 to 1000 nM; at ALK, 100 to 250 nM.

For `Cc1c(C[C@H](C)Nc2cc[nH]c(=O)c2-c2nc3cc4c(cc3[nH]2)CN(CCN2CCCC2)C4=O)ccc(F)c1F`, the IC50 at IGF1R and on ALK was > 1000 nM in each case. `Cc1c(C[C@H](C)Nc2cc[nH]c(=O)c2-c2nc3cc4c(cc3[nH]2)CN(CCN(C)C)C4=O)ccc(F)c1F`: the IC50 at IGF1R and at ALK was > 1000 nM each time. As to `C[C@@H](Cc1cc(F)cc(F)c1F)Nc1cc[nH]c(=O)c1-c1nc2cc3c(cc2[nH]1)CN(CCN1CCCC1)C3`, the IC50 at IGF1R and on ALK was 250 to 1000 nM throughout. Take `Cc1c(F)cc(F)cc1C[C@H](C)Nc1cc[nH]c(=O)c1-c1nc2cc3c(cc2[nH]1)CN(CCN1CCCC1)C3=O`: the IC50 is 250 to 1000 nM at IGF1R and > 1000 nM on ALK. On the same counts, the results for `Cc1c(F)cc(F)cc1C[C@H](C)Nc1cc[nH]c(=O)c1-c1nc2cc3c(cc2[nH]1)CN(CCN(C)C)C3=O` are 250 to 1000 nM and 100 to 250 nM.
